Data: publication PMC8298522 (Scientific Reports, 2021)

Tested on: insulin-positive and insulin-negative pancreatic tumors
Format: in vivo
Conditions: [^68Ga]DOTATOC PET/CT, scan 30 min after injection
Method: PET scans were performed after 30 min of injection of the labeled substance via tail vein (10 MBq/mouse) under 2.0% isoflurane anesthesia using a Triumph LabPET12/SPECT4/CT (TriFoil Imaging Inc., Chatsworth, CA, USA)[41].
After completion of the PET/CT procedures, mice were sacrificed by cervical dislocation, followed by immediate resection of the pancreas. Tissues were spread on filter paper and immediately fixed in 10% formalin at 4 °C. For the analysis of pancreatic tumors, serial formalin-fixed paraffin-embedded sections (4-μm thickness) were stained with anti-insulin and anti-glucagon antibody, as previously reported[39]. Briefly, primary rabbit polyclonal antibody was used for insulin detection at an antibody dilution of 1:100 (Cat# sc-9168; Santa Cruz Biotechnology, USA) and a mouse monoclonal antibody glucagon detection at an antibody dilution of 1:100 (Cat# ab10988; Abcam, USA). The secondary antibodies utilized for the assay were Alexa Fluor 488 goat anti-rabbit antibody at 1:200 dilution (Cat# A-11008; Thermo Fisher Scientific, USA) and Alexa Fluor 546 goat anti-mouse antibody at 1:200 dilution (Cat# A-11030; Thermo Fisher Scientific, USA), respectively. The slides were prepared for analyses under a fluorescence microscope (BZ-X700; Keyence, Osaka, Japan).

## C[C@@H](O)[C@@H]1NC(=O)[C@H](CCCCN)NC(=O)[C@@H](Cc2c[nH]c3ccccc23)NC(=O)[C@H](Cc2ccc(O)cc2)NC(=O)[C@@H](NC(=O)[C@@H](Cc2ccccc2)NC(=O)CN2CCN(CC(=O)[O-])CCN(CC(=O)[O-])CCN(CC(=O)[O-])CC2)CSSC[C@@H](C(=O)N[C@H](CO)[C@@H](C)O)NC1=O.[68Ga+3] [[^68Ga]DOTATOC, ^68Ga-labeled 1,4,7,10-tetraazacyclododecane-N,N′,N″,N″-tetraacetic acid-d-Phe^1-Tyr^3-octreotide]
  Specificity for detecting insulin-positive tumors: 0%
